Measured values published in ChEMBL document CHEMBL1201862, “PubChem BioAssay data set” (2004).
Active and inactive are the calls of the source.

Tests used:
[1] = inhibitors of SNCA 5'UTR-driven reporter translation, confirmation, H4 neuroglioma cells, luminescence (AID 1988); format: functional, cell-based
[2] = molecular target: T1, Short transient receptor potential channel 4 (Mus musculus, UniProt Q9QUQ5); assay: mouse TRPC4 channel activators, dose response, cell-based, HEK293 TRPC4/mu-opioid, Fluo-4 calcium (AID 434937); format: functional
T1 sequence (Q9QUQ5 whole entry): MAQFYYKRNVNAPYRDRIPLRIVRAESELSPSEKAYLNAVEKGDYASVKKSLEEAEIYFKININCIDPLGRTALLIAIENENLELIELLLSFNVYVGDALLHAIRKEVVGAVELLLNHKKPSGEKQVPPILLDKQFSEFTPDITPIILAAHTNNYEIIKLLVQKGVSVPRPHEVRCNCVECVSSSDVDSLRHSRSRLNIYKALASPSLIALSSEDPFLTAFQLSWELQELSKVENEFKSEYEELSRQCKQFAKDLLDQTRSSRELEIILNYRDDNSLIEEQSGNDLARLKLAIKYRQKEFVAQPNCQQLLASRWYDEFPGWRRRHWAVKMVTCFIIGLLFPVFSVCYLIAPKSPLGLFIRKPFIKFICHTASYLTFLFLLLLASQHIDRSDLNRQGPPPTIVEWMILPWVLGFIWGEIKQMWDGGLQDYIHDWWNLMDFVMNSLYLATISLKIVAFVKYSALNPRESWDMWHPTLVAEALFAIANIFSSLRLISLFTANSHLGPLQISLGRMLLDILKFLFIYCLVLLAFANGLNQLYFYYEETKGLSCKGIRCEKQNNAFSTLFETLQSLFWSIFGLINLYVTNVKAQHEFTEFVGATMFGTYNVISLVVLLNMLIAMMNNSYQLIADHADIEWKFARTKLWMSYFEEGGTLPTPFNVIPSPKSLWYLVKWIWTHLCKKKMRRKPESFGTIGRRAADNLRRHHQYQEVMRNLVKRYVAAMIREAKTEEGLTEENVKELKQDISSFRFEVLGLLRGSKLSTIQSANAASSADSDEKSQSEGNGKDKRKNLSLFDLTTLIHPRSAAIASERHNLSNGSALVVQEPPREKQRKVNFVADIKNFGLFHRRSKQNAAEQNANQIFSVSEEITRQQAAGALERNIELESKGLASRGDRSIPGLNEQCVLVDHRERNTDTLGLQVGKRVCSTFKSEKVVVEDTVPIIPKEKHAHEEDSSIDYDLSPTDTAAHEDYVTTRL

Insulin-degrading enzyme [3] = molecular target: T2, Insulin-degrading enzyme (Homo sapiens, UniProt P14735); assay: activators of recombinant IDE enzyme, dose response, counter-screen for IDE activator project, biochemical, fluorescence polarization (AID 588681)
T2 sequence (P14735 whole entry): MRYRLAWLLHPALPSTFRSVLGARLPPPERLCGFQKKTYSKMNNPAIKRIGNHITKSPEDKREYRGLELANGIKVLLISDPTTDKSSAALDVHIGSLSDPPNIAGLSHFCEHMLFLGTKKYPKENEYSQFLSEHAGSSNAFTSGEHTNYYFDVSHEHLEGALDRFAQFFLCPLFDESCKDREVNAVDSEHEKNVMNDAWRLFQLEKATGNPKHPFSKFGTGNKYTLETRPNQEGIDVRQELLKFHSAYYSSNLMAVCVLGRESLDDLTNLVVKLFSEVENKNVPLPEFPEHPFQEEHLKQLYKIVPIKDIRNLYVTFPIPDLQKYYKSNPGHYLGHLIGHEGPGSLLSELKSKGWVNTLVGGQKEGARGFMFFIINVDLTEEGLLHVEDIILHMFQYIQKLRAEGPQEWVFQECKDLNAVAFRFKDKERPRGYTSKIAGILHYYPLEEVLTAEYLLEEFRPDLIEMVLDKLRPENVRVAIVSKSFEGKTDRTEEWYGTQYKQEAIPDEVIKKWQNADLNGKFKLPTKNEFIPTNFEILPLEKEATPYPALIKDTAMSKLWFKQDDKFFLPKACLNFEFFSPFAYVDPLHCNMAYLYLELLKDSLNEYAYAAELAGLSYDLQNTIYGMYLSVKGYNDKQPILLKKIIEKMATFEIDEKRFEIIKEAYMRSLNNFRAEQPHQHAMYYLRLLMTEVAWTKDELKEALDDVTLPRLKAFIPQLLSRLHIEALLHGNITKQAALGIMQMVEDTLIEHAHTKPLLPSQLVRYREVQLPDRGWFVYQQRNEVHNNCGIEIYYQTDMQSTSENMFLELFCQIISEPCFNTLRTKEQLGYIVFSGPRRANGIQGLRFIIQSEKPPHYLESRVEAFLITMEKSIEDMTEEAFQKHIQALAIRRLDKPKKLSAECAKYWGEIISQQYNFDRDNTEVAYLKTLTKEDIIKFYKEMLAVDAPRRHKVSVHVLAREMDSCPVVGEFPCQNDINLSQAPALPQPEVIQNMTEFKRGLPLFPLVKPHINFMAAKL

[4] = inhibitors of firefly luciferase expression or activity, dose response, H4 neuroglioma cells, luminescence (AID 1990); format: functional, cell-based
BJ [5] = assay: cells; format: functional, cell-based; conditions: Homo sapiens
[6] = Luminescence Cell-Based Dose Response HTS to Identify Inhibitors of 5'UTR Stem-Loop Driven Prion Protein mRNA Translation in H4 Neuroglioblastoma Cells. [Related pubchem assays: 1827 (Project Summary), 1813 (Primary HTS)]; format: functional
Streptococcus = assay: Group A Streptococcus viability loss, dose response, counter-screen for streptokinase expression inhibitor project, luminescence, BacTiterGlo (AID 1915); format: functional, organism-based;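 further: potency for reduction of bacterial viability or growth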
Beta-galactosidase = Beta-galactosidase (Escherichia coli, UniProt Q8VNN2); assay: beta-galactosidase enzyme inhibitors and activators, dose response, artefact control for CCR6 antagonist project, biochemical, E. coli enzyme, set 3 (AID 504712); format: functional
[7] = cytotoxicity in HEK-293T cells, dose response, cytotoxicity control for TCR NF-kB inhibitor project, luminescence, T-cell screen hits (AID 489026); format: functional, cell-based;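 further: cells exposed to compound about 14 hours before the viability readout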
[8] = system: Streptococcus sp. 'group A'; assay: growth inhibition of control SK(-) GAS strain, dose response, counter-screen for streptokinase expression inhibitor project, luminescence, kanamycin, BacTiterGlo, confirmation (AID 1900); format: functional, organism-based
HEK293 [9] = assay: optical interference in Abeta FP readout, dose response, artefact control for IDE activator project, biochemical, fluorescence polarization (AID 588442); format: functional, cell-based; conditions: Homo sapiens
BJ [10] = assay: cytotoxicity toward BJ-TERT-LT-ST fibroblasts, dose response, cell-based, RAS-independent, luminescence (AID 1935); format: functional; conditions: Homo sapiens;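 further: BJ fibroblasts immortalized with TERT plus LT and ST oncogenes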
BJ [11] = assay: cytotoxicity toward Ras-transformed BJeLR fibroblasts, dose response, cell-based, alamar blue fluorescence, cherrypicked samples (AID 2631); format: functional; conditions: Homo sapiens;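 further: confirmatory dose-response assay in RAS-dependent BJ fibroblasts engineered with TERT, LT and ST, with cytotoxicity read by fluorescence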
INS1 [12] = assay: beta cell apoptosis inhibitors, cytokine rescue, dose response, luminescence, retest (AID 449756); format: functional, cell-based; conditions: Rattus norvegicus;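 further: cell death triggered by IL-1 beta plus TNF-alpha plus IFN-gamma mixture; protective hits raise ATP signal compared with cytokine alone wells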
[13] = cytotoxicity toward DRD oncogenic fibroblasts, dose response, cell-based, non-viral oncogenic, luminescence (AID 1934); format: functional; conditions: Homo sapiens
[14] = C. albicans growth with fluconazole, confirmation, fluorescence, retest (AID 2467); format: functional, cell-based
Insulin-degrading enzyme [15] = molecular target: T2, Insulin-degrading enzyme; assay: activators of endogenous IDE in HEK cells, dose response, cell-based, fluorescence polarization (AID 588439); format: functional
[16] = control 3'UTR Renilla luciferase suppression, dose response, counter-screen for Shn3 inhibitor project, cell-based, Clone20-Shn3RL, cherry-picked (AID 624133); format: functional
BJ [17] = assay: cytotoxicity toward BJ-TERT fibroblasts, dose response, cell-based, RAS-independent, luminescence (AID 1933); format: functional; conditions: Homo sapiens
[18] = NIH-3T3 fibroblast cytotoxicity, dose response, cytotoxicity control, cell-based, fluorescence, Alamar Blue, secondary assay (AID 2327); format: functional;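 further: NIH-3T3 mouse fibroblasts cultured with fluconazole at 8 µg/mL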
HEK293 [19] = assay: HEK cell cytotoxicity by LDH release, dose response, cytotoxicity control for IDE activator project, fluorescence, HEK cells (AID 588440); format: functional, cell-based; conditions: Homo sapiens;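 further: cytotoxicity by LDH release measuring loss of membrane integrity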
[20] = HepG2 cell cytotoxicity, dose response, cytotoxicity control for Shn3 inhibitor project, CellTiter-Glo, cherry-picked (AID 624134); format: functional, cell-based
[21] = Shn3 3'UTR reporter inhibitors, dose response, cell-based, Clone20 osteoblasts, firefly luciferase, cherry-picked (AID 624132); format: functional;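 further: firefly luciferase luminescence from reporter carrying the Shn3 3'UTR in osteoblasts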
[22] = molecular target: Protein disulfide-isomerase (Homo sapiens, UniProt P07237); assay: PDI inhibitors, insulin aggregation turbidity, dose response, biochemical, absorbance, cherry-picked samples (AID 602350); format: functional
INS1 [23] = assay: protection from cytokine-induced mitochondrial depolarization, dose response, cell-based, INS-1E, JC-1 fluorescence ratio, dry powder (AID 488931); format: functional; conditions: Rattus norvegicus
INS1 [24] = assay: protection of INS-1E cells from cytokine death, dose response, ATP luminescence, dry powder (AID 488844); format: functional, cell-based; conditions: Rattus norvegicus
INS1 [25] = assay: inhibitors of cytokine-induced nitrite release, dose response, cell-based, Griess absorbance, INS-1E, dry powder, set 2 (AID 488868); format: functional; conditions: Rattus norvegicus

Chain of Protein disulfide-isomerase (P07237 whole entry): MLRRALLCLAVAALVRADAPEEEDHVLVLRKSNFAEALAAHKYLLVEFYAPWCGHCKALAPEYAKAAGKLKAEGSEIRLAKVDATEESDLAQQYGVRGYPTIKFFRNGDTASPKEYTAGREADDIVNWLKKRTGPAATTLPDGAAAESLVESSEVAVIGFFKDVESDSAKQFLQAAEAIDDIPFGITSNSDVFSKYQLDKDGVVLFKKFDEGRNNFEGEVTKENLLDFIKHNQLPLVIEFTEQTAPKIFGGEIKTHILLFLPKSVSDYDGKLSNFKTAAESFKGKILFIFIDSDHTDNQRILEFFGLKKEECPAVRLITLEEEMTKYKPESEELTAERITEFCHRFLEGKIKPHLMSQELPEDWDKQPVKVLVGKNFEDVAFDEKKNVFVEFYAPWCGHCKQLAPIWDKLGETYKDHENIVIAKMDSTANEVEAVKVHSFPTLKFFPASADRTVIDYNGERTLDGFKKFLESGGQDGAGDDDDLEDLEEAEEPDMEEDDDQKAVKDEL
Chain of Beta-galactosidase (Q8VNN2 whole entry): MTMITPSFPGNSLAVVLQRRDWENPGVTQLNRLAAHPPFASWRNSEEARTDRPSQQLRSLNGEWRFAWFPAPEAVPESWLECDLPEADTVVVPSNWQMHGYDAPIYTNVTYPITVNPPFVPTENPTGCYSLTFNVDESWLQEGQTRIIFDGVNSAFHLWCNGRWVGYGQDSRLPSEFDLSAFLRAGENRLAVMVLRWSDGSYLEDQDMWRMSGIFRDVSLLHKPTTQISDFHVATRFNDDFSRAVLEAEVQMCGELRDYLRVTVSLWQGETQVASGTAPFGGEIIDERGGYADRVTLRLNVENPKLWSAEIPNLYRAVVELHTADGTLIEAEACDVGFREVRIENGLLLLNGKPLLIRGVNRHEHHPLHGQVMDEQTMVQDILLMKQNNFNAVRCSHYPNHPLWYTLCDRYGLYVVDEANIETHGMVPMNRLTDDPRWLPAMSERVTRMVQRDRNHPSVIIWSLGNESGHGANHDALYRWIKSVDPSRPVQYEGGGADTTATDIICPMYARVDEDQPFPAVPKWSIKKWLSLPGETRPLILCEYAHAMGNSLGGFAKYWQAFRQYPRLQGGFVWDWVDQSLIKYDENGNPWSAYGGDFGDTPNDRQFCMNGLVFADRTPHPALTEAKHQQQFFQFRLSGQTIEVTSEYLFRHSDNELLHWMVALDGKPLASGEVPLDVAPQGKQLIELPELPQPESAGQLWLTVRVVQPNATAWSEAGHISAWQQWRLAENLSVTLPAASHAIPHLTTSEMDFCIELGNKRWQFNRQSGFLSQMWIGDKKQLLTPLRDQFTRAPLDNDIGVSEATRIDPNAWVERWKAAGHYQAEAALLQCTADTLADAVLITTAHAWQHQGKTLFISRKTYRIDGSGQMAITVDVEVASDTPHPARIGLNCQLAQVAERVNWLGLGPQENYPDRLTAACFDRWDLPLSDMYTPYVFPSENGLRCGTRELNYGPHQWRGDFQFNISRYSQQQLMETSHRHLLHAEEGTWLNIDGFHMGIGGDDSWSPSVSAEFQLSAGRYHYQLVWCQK

For `CNC[C@H](CC1CCCCC1)NC[C@H](Cc1ccccc1)NCCC12CC3CC(CC(C3)C1)C2`, the EC50 [1] was > 120 µM (not active), the EC50 [2] was 8.41 µM (active) and the EC50 (Insulin-degrading enzyme [3]) was > 54.7 µM (inactive). The EC50 [4] was 5.5 µM (active), the EC50 (BJ [5]) was 5.14 µM (inconclusive) and the EC50 [6] was > 120 µM (not active). The EC50 (Streptococcus) was 8.1 µM (active), the IC50 (Beta-galactosidase) was > 66.6 µM (inactive) and the IC50 [7] was 22.8 µM (inactive). For the same compound, the EC50 [8] was 3.27 µM (active), the EC50 (HEK293 [9]) was > 55.9 µM (inactive) and the EC50 (BJ [10]) was 2 µM (active). The EC50 (BJ [11]) was 509 nM (inconclusive), the AC50 (INS1 [12]) was 3.77 µM (active) and the EC50 [13] was 4.21 µM (active). For the same compound, the EC50 [14] was 3.71 µM (active), the EC50 (Insulin-degrading enzyme [15]) was 7.02 µM (active) and the AC50 [16] was 7.45 µM (active). The EC50 (BJ [17]) was 2.64 µM (inconclusive), the EC50 [18] was 136 µM (inconclusive) and the IC50 (HEK293 [19]) was 3.37 µM (active). For the same compound, the AC50 [20] was 4.47 µM (active) and the AC50 [21] was 5.51 µM (active).

For `CN(C)C(=O)CSc1nnc([C@H](Cc2c[nH]c3ccccc23)NC(=O)OC(C)(C)C)o1`, the AC50 [22] was 19.5 µM (active).

With `C[C@@H]1CN([C@@H](C)CO)C(=O)c2cccc(NC(=O)Nc3ccc(F)cc3)c2O[C@H]1CN(C)S(=O)(=O)c1ccc(Cl)cc1` the AC50 (INS1 [23]) was 95.8 µM (active), the AC50 (INS1 [24]) was 7.24 µM (active) and the AC50 (INS1 [25]) was 27.4 µM (active).
